Measured values taken from patent publication US11807627B2, “Morphic forms of complement factor D inhibitors” (priority 2018, dated 2023).

Columns and labels:
Format in all cases: physicochemical
[1] = Variable humidity XRPD (VH-XRPD); details: between 0 and 90% RH
Protocol: […] analysis was carried out on a Philips X'Pert Pro Multipurpose diffractometer equipped with a humidity chamber. The samples were scanned between 4 and 35.99°2θ using Cu K radiation (α1λ=1.54060 Å; α2=1.54443 Å; β=1.39225 Å; α1; α2 ratio=0.5) running in Bragg-Brentano geometry (step size 0.008°2θ) using 40 kV/40 mA generator settings. Table 10 details the humidity program used.

[2] = Competitive slurries (Example 11)
Protocol: About 10 mg of Form A, Form B and Form J were weighed separately and the solids were combined into one vial. An appropriate volume of selected solvent was then added to form a slurry. Slurries were then agitated under ambient or elevated temperatures for about 48 hours. Post agitation, solids were isolated using centrifuge filtration and XRPD analysis was collected. Table 23 below details selected solvent systems and volumes used.
Solvent was re-introduced (volumes as per Table 24) to the samples and the samples were agitated for a further 72 hours as no single polymorphic form was returned from the experiments after 48 hours agitation. Solids were isolated using centrifuge filtration and XRPD analysis was collected.
Samples were repeated in 2-propanol and 2-propanol/heptane (70/30% v/v) at 60° C. using the above procedure. Samples were agitated for 24 hours and solvent volumes can be found in Table 24 below. […] Isolation of single forms via competitive slurrying appeared to be solvent dependent, as Forms B and J were produced from acetone and acetonitirile, respsectively. […] Both Forms A and B could be isolated from competitive slurrying experiments from different solvent systems but neither was exclusively predominant at a specific temperature.
An additional competitive slurry experiment was conducted. Approximately 20 mg of Form A and Form B were weighed into separate vials. […]

[3] = Storage stability of Compound 3 forms (80° C., 40° C./75% RH, 25° C./60% RH, ambient)
[4] = Solution stress testing (acid, base, oxidative degradation)
[5] = Polymorph study: temperature cycling
Protocol: Approximately 960 mg of Compound 3 Form A was weighed into a 20 mL glass vial and dissolved using 12 mL 1,4-dioxane. 0.5 mL of the solution was then dispensed into twenty-four 1.5 mL HPLC glass vials (approx. 40 mg per vial). The Compound 3 Form A solutions were then frozen (at −50° C.) and dried by lyophilization using a Lablyo mini freeze drier. Post-lyophilization, a sub-sample was taken and analyzed by XRPD. Material was successfully rendered amorphous by lyophilization.
An appropriate volume of solvent (solvent systems are detailed in Table 17) was added to lyophilized solids. The samples were temperature cycled between ambient and 40° C. (4 hour cycles) for around 72 hours. Observations were made after 72 hours temperature cycling. Further solvent was added to the samples to produce a mobile slurry and slurries were agitated at 40° C. for approximately 18 additional hours. A sub-sample of solid (where applicable) was analyzed by XRPD. Samples were heated using a heat gun to aid dissolution to ensure saturated solutions were produced. Saturated solutions were syringe filtered to remove any potential seed material (as a precaution) and divided between three different crystallization conditions: cooling, evaporation, and anti-solvent addition (volumes of saturated solutions per condition can be found in Table 17).

[6] = Polymorph study: crash cooling
Protocol: Saturated solutions of Compound 3 produced from temperature cycling experiments were placed into a fridge to crash cool to 4° C. After about 4 days, observations were made and solids produced were isolated using centrifuge filtration and analyzed by XRPD. Where no solids were recovered, solutions were placed into a freezer (−20° C.) for 14 days. Any solids produced were isolated by centrifuge filtration and analyzed by XRPD (Table 19).

[7] = 40% Ethanol / 60% Water (% v/v) calc. aw = 0.7
[8] = 50% 2-Propanol / 50% Heptane (% v/v), WC = weakly crystalline
[9] = 50% Acetonitrile / 50% Water (% v/v) calc. aw = 0.9
[10] = 50% Ethanol / 50% Heptane (% v/v)
[11] = 70% 2-Propanol / 30% Water (% v/v) aw = 0.8
[12] = 95% 2-Propanol / 5% Heptane (% v/v)
[13] = 95% Methanol / 5% Water (% v/v) calc. aw = 0.2

## CC(=O)c1nn(CC(=O)N2[C@H](C(=O)Nc3nc(Br)ccc3C)C[C@@]3(C)C[C@@H]23)c2ccc(-c3cnc(C)nc3)cc12 [Compound 3 Form A]
[1]
  VH-XRPD: change in form with humidity: no changes in form
[2]; Form A, Form B and Form J, conversion of Form B to Form A in acetone over 72 hours
  Relative stability in competitive slurry: may be the most stable form
[3]; 1 week, WC = weakly crystalline
  1 week stability: 25° C./60% RH XRPD (uncapped): WC Form A
[3]; 25° C./60% RH, uncapped vial
  Stability: form by XRPD after storage: weakly crystalline Form A

## CC(=O)c1nn(CC(=O)N2[C@H](C(=O)Nc3nc(Br)ccc3C)C[C@@]3(C)C[C@@H]23)c2ccc(-c3cnc(C)nc3)cc12 [Compound 3, (1R,3S,5R)-2-(2-(3-acetyl-5-(2-methylpyrimidin-5-yl)-1H-indazol-1-yl)acetyl)-N-(6-bromo-3-methylpyridin-2-yl)-5-methyl-2-azabicyclo[3.1.0]hexane-3-carboxamide]
[4]; 0.1N HCl
  Solution stress testing: Acid degradation: Degradation observed
[4]; 0.1N NaOH
  Solution stress testing: Base degradation: Degradation observed
[4]; H2O2
  Solution stress testing: Oxidative degradation: Not susceptible to oxidation
[5]; 1,4-Dioxane
  Crystallization technique: Maturation: Clear solution
[5]; 1-Butanol
  Crystallization technique: Maturation: Form A
[5]; 2-Methyl Tetrahydrofuran
  Crystallization technique: Maturation: Form A
[5]; 2-Propanol
  Crystallization technique: Maturation: Form A
[5]; [7]
  Crystallization technique: Maturation: Pattern N
[5]; [8]
  Crystallization technique: Maturation: Form A (WC)
[5]; [9]
  Crystallization technique: Maturation: Clear solution
[5]; [10]
  Crystallization technique: Maturation: Amorphous
[5]; 70% 2-Propanol / 30% Heptane (% v/v), WC = weakly crystalline
  Crystallization technique: Maturation: Form B (WC)
[5]; [11]
  Crystallization technique: Maturation: Form A
[5]; [12]
  Crystallization technique: Maturation: Form A
[5]; 95% Heptane / 5% 2-Propanol (% v/v), WC = weakly crystalline
  Crystallization technique: Maturation: Form A (WC)
[5]; [13]
  Crystallization technique: Maturation: Amorphous
[5]; Acetone
  Crystallization technique: Maturation: Form B
[5]; Acetonitrile
  Crystallization technique: Maturation: Form J
[5]; Ethanol
  Crystallization technique: Maturation: Amorphous
[5]; Ethyl Acetate (dry)
  Crystallization technique: Maturation: Amorphous
[5]; Methanol
  Crystallization technique: Maturation: Pattern O
[5]; Methylethyl Ketone
  Crystallization technique: Maturation: Form A
[5]; Methylisobutyl Ketone, WC = weakly crystalline
  Crystallization technique: Maturation: Form A (WC)
[5]; Tetrahydrofuran
  Crystallization technique: Maturation: Clear solution
[5]; Toluene
  Crystallization technique: Maturation: Amorphous
[5]; n-Heptane
  Crystallization technique: Maturation: Amorphous
[5]; tert-Butylmethyl Ether
  Crystallization technique: Maturation: Amorphous
[6]; 1-Butanol
  Crystallization technique: Cooling: Form A
[6]; 2-Methyl Tetrahydrofuran
  Crystallization technique: Cooling: Clear solution
[6]; 2-Propanol
  Crystallization technique: Cooling: Form A
[6]; [7]
  Crystallization technique: Cooling: Amorphous
[6]; [8]
  Crystallization technique: Cooling: Form A (WC)
[6]; [9]
  Crystallization technique: Cooling: Clear solution
[6]; [10]
  Crystallization technique: Cooling: Form A
[6]; 70% 2-Propanol / 30% Heptane (% v/v)
  Crystallization technique: Cooling: Clear solution
[6]; [11]
  Crystallization technique: Cooling: Clear solution
[6]; [12]
  Crystallization technique: Cooling: Form A
[6]; 95% Heptane / 5% 2-Propanol (% v/v)
  Crystallization technique: Cooling: Clear solution
[6]; [13]
  Crystallization technique: Cooling: Clear solution
[6]; Acetone
  Crystallization technique: Cooling: Form A
[6]; Acetonitrile
  Crystallization technique: Cooling: Clear solution
[6]; Ethanol
  Crystallization technique: Cooling: Amorphous
[6]; Ethyl Acetate (dry)
  Crystallization technique: Cooling: Amorphous
[6]; Methanol
  Crystallization technique: Cooling: Clear solution
[6]; Methylethyl Ketone
  Crystallization technique: Cooling: Clear solution
[6]; Methylisobutyl Ketone
  Crystallization technique: Cooling: Clear solution
[6]; Tetrahydrofuran
  Crystallization technique: Cooling: Clear solution
[6]; Toluene
  Crystallization technique: Cooling: Amorphous
[6]; n-Heptane
  Crystallization technique: Cooling: Clear solution
[6]; tert-Butylmethyl Ether
  Crystallization technique: Cooling: Clear solution

## CC(=O)c1nn(CC(=O)N2[C@H](C(=O)Nc3nc(Br)ccc3C)C[C@@]3(C)C[C@@H]23)c2ccc(-c3cnc(C)nc3)cc12 [Form B]
[2]; Form A and Form B in saturated Compound 3 solutions, ambient and elevated temperature, about 2 weeks
  Relative stability in competitive slurry: likely the most thermodynamically stable form
